Assays:
[1] = test system: human breast cancer cell line (MC-2); assay: MC-2 xenograft in nude mice, relative tumor volume and days till RTV reached 2; FTD/TPI and bevacizumab; type: in vivo
Description: (§1) A human colon cancer cell line (KM20C) was transplanted onto the right chest of a five to six week-old BALB/cA Jcl-nu mouse. The length (mm) and the breadth (mm) of the tumor after the tumor transplantation were measured, and the tumor volume (TV) was calculated. Then, the mouse was allocated into each group such that the average TV in each group was equal, and the day when the grouping (n=6 to 7) was implemented was assumed to be Day 0.
(§2) As an index of the antitumor effect, the TV in each group was calculated, and the relative tumor volume (RTV) for Day 0 was obtained from the equation below and plotted. The chronological changes of RTV were compared among no treatment group (control), an FTD/TPI combination drug-treated group, a bevacizumab-treated group, and a FTD/TPI combination drug and bevacizumab combination-treated group. In addition, the weight loss as the toxicity was evaluated. TV(mm^3)=(length×breadth^2)/2 RTV=(TV on evaluation day)/(TV on Day 0)
(§3) Next, a test was performed in the same manner using a human breast cancer cell line (MC-2).
With respect to the time period during which the tumor volume doubled from Day 0 (namely, RTV becomes 2), the results of the combination-treated group were predicted from the single agent-treated group of FIGS. 5 and 6. The “length of days till RTV actually reached 2” was calculated under the assumption that RTV on the measurement day when RTV firstly exceeded 2 changes according to a linear function from RTV on the measurement day immediately before the day.

[2] = Body weight change of MC-2-bearing nude mice (toxicity); type: in vivo, mouse; conditions: MC-2, Day 15, dose 1.5 mg/kg/day
Description: as §1, §2, §3

[3] = Body weight change of KM20C-bearing nude mice (toxicity); type: in vivo, mouse
Description: as §1
(§4) The administration dose of the drug was 10 mL/kg, and the FTD/TPI combination drug (a mixture of FTD and TPI at a molar ratio of 1:0.5) was prepared to be 150 mg/kg/day as the dose of FTD.
As an index of the antitumor effect, the TV in each group was calculated, and the relative tumor volume (RTV) for Day 0 was obtained from the equation below and plotted. […] In addition, the weight loss as the toxicity was evaluated. TV(mm^3)=(length×breadth^2)/2 RTV=(TV on evaluation day)/(TV on Day 0)

[4] = test system: human colon cancer cell line (KM20C); assay: KM20C xenograft in nude mice, relative tumor volume; FTD/TPI oral Days 1 to 14, bevacizumab into abdominal cavity twice a week for two weeks; type: in vivo
Description: as §1, §4, §2

[5] = Body weight change of Co-3-bearing nude mice, panitumumab study (toxicity); type: in vivo, mouse
Description: (§5) A human colon cancer cell line (Co-3) was transplanted onto the right chest of a five to six week-old BALB/cA Jcl-nu mouse. The length (mm) and the breadth (mm) of the tumor after the tumor transplantation were measured, and the tumor volume (TV) was calculated. Then, the mouse was allocated into each group such that the average TV in each group was equal, and the day when the grouping (n=6) was implemented was assumed to be Day 0.
(§6) The administration dose of the drug was 10 mL/kg, and the FTD/TPI combination drug (a mixture of FTD and TPI at the molar ratio of 1:0.5) was prepared to be 150 mg/kg/day as the dose of FTD. Panitumumab (Vectibix (registered trademark) injection, Amgen Inc.) was prepared to be 0.30, 0.89, 2.7 and 8 mg/kg/day. The FTD/TPI combination drug was orally administered on Days 1 to 14 every day, and panitumumab was administered into the abdominal cavity for two weeks at a frequency of twice a week from Day 1. To the combination-treated group, the FTD/TPI combination drug and panitumumab were administered in the same doses and the same administration schedules as those of the single agent-treated group.
As an index of the antitumor effect, TV on Days 5, 8, 12 and 15 was calculated in each group, and the relative tumor volume (RTV) for Day 0 was obtained according to the formula of Example 1 and plotted. The chronological changes of RTV were compared of no treatment group (control), the FTD/TPI combination drug-treated group, the panitumumab-treated group and the combination FTD/TPI combination drug and panitumumab treated group. In addition, the weight loss as the toxicity was evaluated.

[6] = test system: human colon cancer cell line (Co-3); assay: Co-3 xenograft in nude mice, relative tumor volume; FTD/TPI oral Days 1 to 14, panitumumab into abdominal cavity twice a week for two weeks; type: in vivo
Description: as §5, §6
[…] The chronological changes of RTV were compared of no treatment group (control), the FTD/TPI combination drug-treated group, the panitumumab-treated group and the combination FTD/TPI combination drug and panitumumab treated group. In addition, the weight loss as the toxicity was evaluated.

[7] = MC-2, Day 15, dose 1.5 mg/kg/day
[8] = Co-3, Day 29, dose 0.30 mg/kg/day
[9] = Co-3, Day 29, dose 0.89 mg/kg/day
[10] = Co-3, Day 29, dose 2.7 mg/kg/day

Bevacizumab: anti-VEGF humanized monoclonal antibody (Avastin injection, Chugai Pharmaceutical Co., Ltd.)
IR (%) tumor growth inhibition rate [1, 7]: 41.1% | RTV (mean ± SD) [1, 7]: 3.06 ± 0.88 | Length of Days (day) till RTV actually reached 2 ([1]; MC-2, single agent, bevacizumab 1.5 mg/kg/day): 7.71 days | Body weight change (%, mean ± SD) [2]: 7.7 ± 3.7% | Body weight change (%, mean ± SD) ([3]; Day 29, dose 0.20 mg/kg/day): 9.7 ± 5.1% | Body weight change (%, mean ± SD) ([3]; Day 29, dose 0.55 mg/kg/day): 3.2 ± 6.0% | Body weight change (%, mean ± SD) ([3]; Day 29, dose 1.7 mg/kg/day): 5.2 ± 6.7% | IR (%) tumor growth inhibition rate ([4]; Day 29, dose 0.20 mg/kg/day): 34.3% | RTV (mean ± SD) ([4]; Day 29, dose 0.20 mg/kg/day): 8.93 ± 2.79 | IR (%) tumor growth inhibition rate ([4]; Day 29, dose 0.55 mg/kg/day): 28.5% | RTV (mean ± SD) ([4]; Day 29, dose 0.55 mg/kg/day): 9.71 ± 4.99 | IR (%) tumor growth inhibition rate ([4]; Day 29, dose 1.7 mg/kg/day): 39.7% | RTV (mean ± SD) ([4]; Day 29, dose 1.7 mg/kg/day): 8.19 ± 2.29 | IR (%) tumor growth inhibition rate ([4]; Day 29, dose 5 mg/kg/day): 38.6% | RTV (mean ± SD) ([4]; Day 29, dose 5 mg/kg/day): 8.34 ± 1.82

Panitumumab: anti-EGFR human-type fully monoclonal antibody (Vectibix injection, Amgen Inc.)
Body weight change (%, mean ± SD) [5, 8]: −11.3 ± 5.3% | Body weight change (%, mean ± SD) [5, 9]: −6.7 ± 4.3% | Body weight change (%, mean ± SD) [5, 10]: −1.2 ± 3.1% | Body weight change (%, mean ± SD) ([5]; Co-3, Day 29, dose 8 mg/kg/day): −4.5 ± 4.5% | IR (%) tumor growth inhibition rate [6, 8]: 23.0% | RTV (mean ± SD) [6, 8]: 18.15 ± 6.79 | IR (%) tumor growth inhibition rate [6, 9]: 35.9% | RTV (mean ± SD) [6, 9]: 15.10 ± 7.51 | IR (%) tumor growth inhibition rate [6, 10]: 46.1% | RTV (mean ± SD) [6, 10]: 12.71 ± 4.37 | IR (%) tumor growth inhibition rate ([6]; Co-3, Day 29, dose 8 mg/kg/day): 45.0% | RTV (mean ± SD) ([6]; Co-3, Day 29, dose 8 mg/kg/day): 12.97 ± 2.33

Source: US9943537B2, “Antitumor agent and antitumor effect enhancer” (TAIHO PHARMACEUTICAL CO., LTD., priority 2013, dated 2018)
